In patent publication US8637568B2, “Serotonin reuptake inhibitors” (Theravance, Inc., priority 2010, dated 2014):

Legend:
[1] = target: T1, human recombinant SERT (HEK293-hSERT cells) (Homo sapiens, UniProt P31645); experiment: hSERT neurotransmitter uptake assay; assay type: cell-based; settings: serotonin reuptake inhibition in HEK293-hSERT cells; read-out: SERT pIC50 (converted)
T1 construct: expressed in transfected cells; host or cells: HEK293 (stably transfected), whole cells
Experimental: HEK293 cells stably-transfected with human recombinant SERT (HEK293-hSERT) were grown in Dulbecco's Modified Eagle's Medium supplemented with 10% dialyzed fetal bovine serum, 100 µg/ml penicillin, 100 µg/ml streptomycin, 2 mM L-glutamine, and 250 μg/ml of the aminoglycoside antibiotic G418. Cells were incubated in a 5% CO2, humidified incubator at 37° C.
In pre-incubation studies, test compound was added to cells for 30 minutes at 37° C. prior to the addition of fluorescent substrate. […] For real-time measurements, compounds were either preincubated (as above) or mixed with substrate prior to addition, and kinetic measurements, relative fluorescence units (RFU integrated over 0.5 ms),were made using a cycle time of 1 min.

[2] = target: T2, human recombinant serotonin transporter (hSERT) (Homo sapiens, UniProt P31645); experiment: hSERT binding assay (3H-citalopram membrane radioligand binding); settings: inhibition of 3H-citalopram binding to membranes from HEK-293 cells expressing hSERT; Cheng-Prusoff; read-out: SERT pKi (converted)
T2 construct: expressed in transfected cells; host or cells: HEK-293 (stably transfected), membrane preparation
Experimental: Protein concentration of the membrane suspension was determined using a Bio-Rad Bradford Protein Assay kit. Membranes were snap frozen and stored at −80° C.
Following a 60 minute incubation at 22° C. […] IC50 values were generated from concentration response curves using the Sigmoidal Dose Response (variable slope) algorithm in Prism GraphPad.

T1 sequence (P31645 whole entry): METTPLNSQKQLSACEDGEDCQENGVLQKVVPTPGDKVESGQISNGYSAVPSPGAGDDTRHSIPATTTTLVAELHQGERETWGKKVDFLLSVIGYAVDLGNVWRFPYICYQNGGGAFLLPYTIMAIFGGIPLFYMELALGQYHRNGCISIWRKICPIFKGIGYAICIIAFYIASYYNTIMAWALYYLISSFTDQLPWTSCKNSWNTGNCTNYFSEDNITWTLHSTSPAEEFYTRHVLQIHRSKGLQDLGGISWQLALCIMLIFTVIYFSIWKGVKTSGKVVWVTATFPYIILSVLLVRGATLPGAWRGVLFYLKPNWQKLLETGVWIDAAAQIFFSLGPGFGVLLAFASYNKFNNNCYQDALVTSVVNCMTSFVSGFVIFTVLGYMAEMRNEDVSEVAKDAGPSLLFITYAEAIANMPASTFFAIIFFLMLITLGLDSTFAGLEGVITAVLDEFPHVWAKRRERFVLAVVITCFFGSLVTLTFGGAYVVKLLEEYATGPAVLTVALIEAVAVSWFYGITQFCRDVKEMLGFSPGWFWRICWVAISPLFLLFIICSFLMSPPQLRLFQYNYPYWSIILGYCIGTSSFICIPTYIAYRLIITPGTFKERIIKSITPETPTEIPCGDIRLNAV
T2 sequence (P31645 whole entry): as above

IC50 [1] [µM]	Ki [2] [µM]	Compound
≤ 0.01	≤ 0.01	CS(=O)(=O)NC[C@@H](Oc1ccc(C(F)(F)F)cc1)[C@H]1CCNC1 [Example 3-1, N-[(S)-2-(S)-Pyrrolidin-3-yl-2-(4-trifluoromethylphenoxy)ethyl]-methanesulfonamide]
≤ 0.01	≤ 0.01	CC(=O)N(C[C@@H](Oc1ccc(C(F)(F)F)cc1)[C@H]1CCNC1)S(C)(=O)=O [Example 3-4, N-Acetyl-N-[(S)-2-(S)-pyrrolidin-3-yl-2-(4-trifluoromethylphenoxy)ethyl]-methanesulfonamide]
≤ 0.01		O=S(=O)(NC[C@@H](Oc1ccc(C(F)(F)F)cc1)[C@H]1CCNC1)c1ccccc1 [Example 3-19, N-[(S)-2-(S)-Pyrrolidin-3-yl-2-(4-trifluoromethylphenoxy)ethyl]benzenesulfonamide]
≤ 0.01		N#Cc1ccc(S(=O)(=O)NC[C@@H](Oc2ccc(C(F)(F)F)cc2)[C@H]2CCNC2)cc1 [Example 3-20, 4-Cyano-N-[(S)-2-(S)-pyrrolidin-3-yl-2-(4-trifluoromethylphenoxy)ethyl]benzenesulfonamide]
≤ 0.1	≤ 0.1	O=C(O)c1ccc(S(=O)(=O)NC[C@@H](Oc2ccc(C(F)(F)F)cc2)[C@H]2CCNC2)cc1 [Example 3-21, 4-[(S)-2-(S)-Pyrrolidin-3-yl-2-(4-trifluoromethylphenoxy)ethylsulfamoyl]-benzoic acid]
≤ 0.01		O=[N+]([O-])c1ccc(S(=O)(=O)NC[C@@H](Oc2ccc(C(F)(F)F)cc2)[C@H]2CCNC2)cc1 [Example 3-22, 4-Nitro-N-[(S)-2-(S)-pyrrolidin-3-yl-2-(4-trifluoromethylphenoxy)ethyl]benzenesulfonamide]
≤ 0.01		COc1ccc(S(=O)(=O)NCC(Oc2ccc(C(F)(F)F)cc2)C2CCNC2)cc1 [Example 3-23, 4-Methoxy-N-[(S)-2-(S)-pyrrolidin-3-yl-2-(4-trifluoromethylphenoxy)ethyl]bensenesulfonamide]
≤ 0.01		COCCc1ccc(S(=O)(=O)NC[C@@H](Oc2ccc(C(F)(F)F)cc2)[C@H]2CCNC2)cc1 [Example 3-24, 4-(2-Methoxyethyl)-N-[(S)-2-(S)-pyrrolidin-3-yl-2-(4-trifluoromethylphenoxy)ethyl]benzenesulfonamide]
≤ 0.01		CNC(=O)c1cccc(S(=O)(=O)NCC(Oc2ccc(C(F)(F)F)cc2)C2CCNC2)c1 [Example 3-25, N-Methyl-3-[(S)-2-(S)--pyrrolidin-3-yl-2-(4-trifluoromethylphenoxy)ethylsulfamoyl]benamide]
≤ 0.01		CC(=O)Nc1cccc(S(=O)(=O)NC[C@@H](Oc2ccc(C(F)(F)F)cc2)[C@H]2CCNC2)c1 [Example 3-26, N-{3-[(S)-2-(S)-Pyrrolidin-3-yl-2-(4-trifluoromethylphenoxy)ethylsulfamoyl]phenyl}acetamide]
≤ 0.01		CS(=O)(=O)c1ccc(S(=O)(=O)NC[C@@H](Oc2ccc(C(F)(F)F)cc2)[C@H]2CCNC2)cc1 [Example 3-27, 4-Methanesulfonyl-N-[(S)-2-(S)-pyrrolidin-3-yl-2-(4-trifluoromethylphenoxy)ethyl]benzenesulfonamide]
≤ 0.1		CS(=O)(=O)c1cccc(S(=O)(=O)NC[C@@H](Oc2ccc(C(F)(F)F)cc2)[C@H]2CCNC2)c1 [Example 3-28, 3-Methanesulfonyl-N-[(S)-2-(S)-pyrrolidin-3-yl-2-(4-trifluoromethylphenoxy)ethyl]benzenesulfonamide]
≤ 0.01		CS(=O)(=O)c1ccccc1S(=O)(=O)NC[C@@H](Oc1ccc(C(F)(F)F)cc1)[C@H]1CCNC1 [Example 3-29, 2-Methanesulfonyl-N-[(S)-2-(S)-pyrrolidin-3-yl-2-(4-trifluoromethylphenoxy)ethyl]benzenesulfonamide]
≤ 0.01		NS(=O)(=O)c1ccc(S(=O)(=O)NCC(Oc2ccc(C(F)(F)F)cc2)C2CCNC2)cc1 [Example 3-30, Benzene-1,4-disulfonic acid lamide 4-{[(S)-2-(S)-pyrrolidin-3-yl-2-(4-trifluoromethylphenoxy)ethyl]amide}]
≤ 0.01		CNS(=O)(=O)c1ccc(S(=O)(=O)NCC(Oc2ccc(C(F)(F)F)cc2)C2CCNC2)cc1 [Example 3-31, Benzene-1,4-disulfonic acid 1-methylamide 4-{[(S)-2-(S)-pyrrolidin-3-yl-2-(4-trifluoromethylphenoxy)ethyl]amide}]
≤ 0.01		O=S(=O)(NC[C@@H](Oc1ccc(C(F)(F)F)cc1)[C@H]1CCNC1)c1ccc(-n2cccn2)cc1 [Example 3-32, 4-Pyrazol-1-yl-N-[(S)-2-(S)-pyrrolidin-3-yl-2-(4-trifluoromethylphenoxy)ethyl]benzenesulfonamide]
≤ 0.01		Cc1cc(C)n(-c2ccc(S(=O)(=O)NCC(Oc3ccc(C(F)(F)F)cc3)C3CCNC3)cc2)n1 [Example 3-33, 4-(3,5-Dimethyl-pyrazol-1-yl)-N-(S)-2-(S)-pyrrolidin-3-yl-2-(4-trifluoromethylphenoxy)ethyl]benzenesulfonamide]
≤ 0.01		O=S(=O)(NC[C@@H](Oc1ccc(C(F)(F)F)cc1)[C@H]1CCNC1)c1ccc(-c2ncccn2)cc1 [Example 3-34, 4-Pyrimidin-2-yl-N-[(S)-2-(S)-pyrrolidin-3-yl-2-(4-trifluoromethylphenoxy)ethyl]benzenesulfonamide]
≤ 0.1		O=S(=O)(NCC(Oc1ccc(C(F)(F)F)cc1)C1CCNC1)c1ccc(-c2nnn[nH]2)cc1 [Example 3-35, N[(S)-2-(S)-Pyrrolidin-3-yl-2-(4-trifluoromethylphenoxy)ethyl]-4-(1H-tetrazol-5-yl)-benzenesulfonamide]
≤ 0.01		NS(=O)(=O)C[C@@H](Oc1ccc(C(F)(F)F)cc1)[C@H]1CCNC1 [Example 4, (S)-2-(S)-Pyrrolidin-3-yl-2-(4-trifluoromethylphenoxy)ethanesulfonic Acid Amide]
≤ 0.01		O=S(=O)(C[C@@H](Oc1ccc(C(F)(F)F)cc1)[C@H]1CCNC1)NCc1ccccc1 [Example 5, (S)-2-(S)-Pyrrolidin-3-yl-2-(4-trifluoromethylphenoxy)ethanesulfonic Acid Benzylamide]
≤ 0.01		CNS(=O)(=O)C[C@@H](Oc1ccc(C(F)(F)F)cc1)[C@H]1CCNC1 [Example 6, (S)-2-(S)-Pyrrolidin-3-yl-2-(4-trifluoromethylphenoxy)ethanesulfonic Acid Methylamide]
≤ 0.01		CN(C)S(=O)(=O)C[C@@H](Oc1ccc(C(F)(F)F)cc1)[C@H]1CCNC1 [Example 7-1, (S)-2-(S)-Pyrrolidin-3-yl-2-(4-trifluoromethylphenoxy)ethanesulfonic acid dimethylamide]
